Measured values reported in ChEMBL document CHEMBL1126010, “Conformationally restrained analogues of pravadoline: nanomolar potent, enantioselective, (aminoalkyl)indole agonists of the cannabinoid receptor” (J Med Chem, 1992).

What was measured:
Mus musculus [1] = species on record: Mus musculus; assay: In vitro inhibition of electrically stimulated contractions of isolated mouse vas deferens.; assay type: functional
Mus musculus [2] = species on record: Mus musculus; assay: Inhibitory activity against PG synthesis was measured in mouse brain microsomes.; assay type: functional
Cannabinoid receptor = Cannabinoid receptor (Rattus norvegicus, UniProt Q9QZN9+P20272); assay: Concentration required to displace 50% of 0.5 nM [3H](aminoalkyl)indole binding to cannabinoid receptor in rat cerebellum membranes; assay type: cell membranes, Membrane
Mus musculus [3] = species on record: Mus musculus; assay: Inhibitory activity against PG synthesis was measured in mouse brain microsomes at 30 uM; assay type: functional
Mus musculus [4] = species on record: Mus musculus; assay: In vitro inhibition of electrically stimulatedcontradions was measured on isolated mouse vas deferens at 10 uM; assay type: functional
[5] = molecular target: Cannabinoid receptor (Rattus norvegicus) (UniProt Q9QZN9+P20272); conditions: Cerebellum; Membrane; at 1 µM
Description: Inhibition of 0.5 nM [3H](Aminoalkyl)indole binding to cannabinoid receptor in rat cerebellum membranes at 1 uM

Mus musculus [6] = assay: In vivo antinociceptive effect was tested in the mouse acetylcholine writhing assay after po administration; assay type: functional
Mus musculus [7] = assay: (§1) in vivo antinociceptive effect was tested in the mouse acetylcholine writhing assay after iv administration; assay type: functional
Mus musculus [8] = assay: as §1; assay type: functional, organism-based
Mus musculus [9] = assay: In Vivo antinociceptive effect was tested in the mouse acetylcholine writhing assay after 100 mg/kg po administration; assay type: functional
Mus musculus [10] = assay: In vivo antinociceptive effect was tested in the mouse acetylcholine writhing assay after 100 mg/kg po administration; assay type: functional

Chain of Cannabinoid receptor (Rattus norvegicus) (P20272 whole entry, looked up): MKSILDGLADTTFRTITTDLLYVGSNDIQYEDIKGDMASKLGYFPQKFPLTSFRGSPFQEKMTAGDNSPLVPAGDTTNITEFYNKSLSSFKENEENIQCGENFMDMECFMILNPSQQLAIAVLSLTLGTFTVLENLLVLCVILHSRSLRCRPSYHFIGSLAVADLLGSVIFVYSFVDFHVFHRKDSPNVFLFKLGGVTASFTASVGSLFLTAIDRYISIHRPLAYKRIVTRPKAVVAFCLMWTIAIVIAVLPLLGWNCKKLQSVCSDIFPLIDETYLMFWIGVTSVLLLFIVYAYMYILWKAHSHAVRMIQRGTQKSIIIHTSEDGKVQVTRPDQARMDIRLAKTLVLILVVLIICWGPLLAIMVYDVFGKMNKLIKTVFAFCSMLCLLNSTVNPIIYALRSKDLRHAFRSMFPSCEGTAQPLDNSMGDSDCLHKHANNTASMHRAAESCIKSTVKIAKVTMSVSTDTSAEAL
Chain of Cannabinoid receptor (Rattus norvegicus) (Q9QZN9 whole entry, looked up): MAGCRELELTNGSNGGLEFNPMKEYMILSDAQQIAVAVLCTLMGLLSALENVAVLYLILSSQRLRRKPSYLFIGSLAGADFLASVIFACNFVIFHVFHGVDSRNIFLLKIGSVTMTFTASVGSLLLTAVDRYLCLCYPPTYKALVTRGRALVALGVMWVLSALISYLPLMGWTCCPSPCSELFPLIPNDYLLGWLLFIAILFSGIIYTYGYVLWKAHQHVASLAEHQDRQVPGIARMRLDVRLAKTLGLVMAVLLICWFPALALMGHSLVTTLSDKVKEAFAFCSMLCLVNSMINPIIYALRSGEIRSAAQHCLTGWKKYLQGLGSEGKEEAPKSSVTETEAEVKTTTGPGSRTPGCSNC

For `Cc1c(C(=O)c2cccc3ccccc23)c2cccc3c2n1[C@H](CN1CCOCC1)CO3` (stereo in doubt) [WIN-552122], the IC50 (Mus musculus [1]) was 0.43 nM and the IC50 (Mus musculus [2]) was 9000 nM.
`Cc1c(C(=O)c2ccc3ncccc3c2)c2cccc3c2n1C(CN1CCOCC1)CO3` (centres undefined) gave an IC50 (Mus musculus [1]; Mus musculus) of 21 nM, an IC50 (Cannabinoid receptor) of 132.5 nM and an IC50 (Mus musculus [2]) of 26000 nM.
`Cc1c(C(=O)c2ccccc2F)c2cccc3c2n1C(CN1CCOCC1)CO3` (centres undefined) gave an IC50 (Mus musculus [1]; Mus musculus) of 76 nM, an IC50 (Cannabinoid receptor) of 1426 nM and an IC50 (Mus musculus [2]) of 42000 nM.
Molecule `Cc1c(C(=O)c2cccc3ccccc23)c2cccc3c2n1[C@H](CN1CCOCC1)CO3` (stereo in doubt; 21) [WIN-552122] has an IC50 (Mus musculus [1]) of 6 nM.
`C[C@H](CCCc1ccccc1)Oc1cc(O)c2c(c1)N[C@@H](C)[C@@H]1CC[C@@H](O)C[C@@H]21` gave an IC50 (Mus musculus [1]; Mus musculus) of 2.3 nM and an IC50 (Cannabinoid receptor) of 0.46 nM.
Molecule `Cc1c(C(=O)c2cccc3c(Br)cc(Br)cc23)c2cccc3c2n1[C@H](CN1CCOCC1)CO3` has an IC50 (Cannabinoid receptor) of 48.3 nM.
In the case of `COc1ccc(C(=O)c2c3n(c4ccccc24)CC(N2CCOCC2)C3)cc1` (centres undefined), the IC50 (Mus musculus [1]; Mus musculus) is reported as > 10000 nM and the inhibition (Mus musculus [3]) is reported as 18%.
In the case of `COc1ccc(C(=O)c2c(C)n3c4c(cccc24)OC[C@@H]3CN2CCOCC2)cc1`, the IC50 (Mus musculus [1]; Mus musculus) is reported as > 10000 nM, the IC50 (Cannabinoid receptor) is reported as 17500 nM and the IC50 (Mus musculus [2]) is reported as 30000 nM.
`COc1ccc(C(=O)c2c3n(c4ccccc24)C(CN2CCOCC2)CC3)cc1` (centres undefined) gave an IC50 (Mus musculus [1]; Mus musculus) of 320 nM and an IC50 (Cannabinoid receptor) of 3053 nM.
`Cc1c(C(=O)c2ccc(Br)c3ccccc23)c2cccc3c2n1C(CN1CCOCC1)CO3` (centres undefined) gave an IC50 (Mus musculus [1]; Mus musculus) of 2.2 nM and an IC50 (Cannabinoid receptor) of 2.32 nM.
`CCc1c(C(=O)c2ccc(OC)cc2)c2cccc3c2n1C(CN1CCOCC1)CO3` (centres undefined) gave an inhibition at 10 µM (Mus musculus [4]) of 28% and an inhibition [5] of 27%.
With `COc1ccc(C(=O)c2cn3c4c(cccc24)OCC3CN2CCOCC2)cc1` (centres undefined) the IC50 (Mus musculus [1]; Mus musculus) was 45.5 nM, the ED50 (Mus musculus [6]) was 2 mg/kg and the IC50 (Cannabinoid receptor) was 249 nM. For the same molecule, the inhibition [5] was -9%.
For `COc1ccc(C(=O)c2c(C)n3c4c(cccc24)OC[C@H]3CN2CCOCC2)cc1`, the IC50 (Mus musculus [1]; Mus musculus) was 44 nM, the IC50 (Cannabinoid receptor) was 106 nM and the IC50 (Mus musculus [2]) was 50000 nM.
`COc1ccc(C(=O)c2c(C)n(CCN3CCOCC3)c3ccccc23)cc1` [PRAVADOLINE] showed an IC50 (Mus musculus [1]; Mus musculus) of 453 nM, an ED50 (Mus musculus [7]) of 4 mg/kg and an ED50 (Mus musculus [6]) of 26 mg/kg. For the same molecule, the IC50 (Cannabinoid receptor) was 3155 nM and the IC50 (Mus musculus [2]) was 5000 nM.
In the case of `COc1ccc2c(c1)c(CC(=O)O)c(C)n2C(=O)c1ccc(Cl)cc1` [INDOMETHACIN], the IC50 (Mus musculus [1]; Mus musculus) is reported as > 10000 nM and the IC50 (Mus musculus [2]) is reported as 500 nM.
`COc1ccc(C(=O)c2c(C)n3c4c(cccc24)OCC3CN2CCOCC2)cc1` (centres undefined) showed an IC50 (Mus musculus [1]; Mus musculus) of 123 nM, an IC50 (Cannabinoid receptor) of 152 nM and an IC50 (Mus musculus [8]) of 4000 nM. The IC50 (Mus musculus [2]) was 72000 nM and the inhibition in vivo at 100 mg/kg (Mus musculus [9]) was 30%.
`COc1ccc(C(=O)c2c3n(c4ccccc24)CCC3N2CCOCC2)cc1` (centres undefined) was tested, and the IC50 (Mus musculus [1]; Mus musculus) was > 10000 nM, the ED50 (Mus musculus [6]) was 91 mg/kg and the inhibition (Mus musculus [3]) was 49%.
For `O=C(c1cccc2ccccc12)c1cn2c3c(cccc13)OCC2CN1CCOCC1` (centres undefined), the IC50 (Mus musculus [1]; Mus musculus) was 2 nM and the IC50 (Cannabinoid receptor) was 7.37 nM.
In the case of `Cc1c(C(=O)c2cccc3ccccc23)c2cccc3c2n1[C@@H](CN1CCOCC1)CO3`, the IC50 (Mus musculus [1]; Mus musculus) is reported as > 10000 nM, the IC50 (Mus musculus [2]) is reported as 10000 nM and the inhibition in vivo at 100 mg/kg (Mus musculus [9]) is reported as 10%.
With `COc1ccc(C(=O)c2c(C)n3c4c(cccc24)CC(N2CCOCC2)C3)cc1` (centres undefined) the IC50 (Mus musculus [1]; Mus musculus) was > 10000 nM, the inhibition (Mus musculus [3]) was 12% and the inhibition in vivo at 100 mg/kg (Mus musculus [10]) was 30%. It also gave an inhibition [5] of 1.4%.
